Data on two molecules can be found in patent US7598072B2 (priority 2003, dated 2009).

Assay [1] has as its system RCASBP(A)-EGFP (ASLV-A) in 293(TVA950) cells. It counts as cell-based, avian sarcoma and leukosis virus.
Assay [2] concerns RCASBP(A)-EGFP (ASLV-A) in 293(TVA800) cells. It counts as cell-based, avian sarcoma and leukosis virus.
Where [3] appears, read: 30 mM NH4Cl for 10 hours, added at 20 minutes or later after initiating infection.
The mark [4] stands for this setting: 30 mM NH4Cl for 10 hours, added at time of initiating infection or 10 minutes later.
Where [5] appears, read: 6 hour block with 30 mM NH4Cl, QPCR.
Where [6] appears, read: 6 hour block with 30 mM NH4Cl, flow cytometry.
[7] abbreviates: 15 mM MβCD, 15 minutes, no NH4Cl.

In the case of `Cl.N` [NH4Cl, ammonium chloride], the “effect upon viral infectivity (QPCR)” value in assay [1] (setting [3]) and in assay [2] (setting [3]) was “greatly reduced effect” in each case. Also, the “effect on infection (QPCR of reverse-transcribed DNA)” value in assay [1] (setting [4]) and in assay [2] (setting [4]) was “complete block” throughout. Besides, the “viral infection during the period of inhibitor treatment” value in assay [1] (30 mM NH4Cl, 6 hours) is given as “completely arrested”; in assay [2] (30 mM NH4Cl, 6 hours) it was “completely arrested”. Moreover, the “decrease in viral infectivity” value in assay [1] (6 hour 30 mM NH4Cl, irrespective of whether cyclodextrin had been added) is listed as “approximately 80%”. In assay [1] (setting [5]), the “number of viral DNA products after NH4Cl release, relative to untreated cells” value came out at 10%. For the same molecule, the “efficiency of infection (EGFP-positive cells) relative to untreated cells” value stood at 20% in assay [1] (setting [6]) and 85% in assay [2] (setting [6]). Besides, the “infectivity on increasing time of NH4Cl treatment to 12 hours” value is “further decrease” in assay [1] (12 hours NH4Cl, data not shown) and “did not affect” in assay [2] (12 hours NH4Cl, data not shown). In assay [2] (setting [5]), the “level of infection (late viral DNA products) after NH4Cl release, relative to untreated cells” value is given as “approximately 60%”.

Regarding methyl-β-cyclodextrin [MβCD], the “effect of cyclodextrin treatment by itself on viral infectivity” value in assay [1] (setting [7]) and in assay [2] (setting [7]) was “only a minor effect” each time. In addition, in assay [2] (15 mM MβCD 15 minutes combined with 6 hour 30 mM NH4Cl block at time of initiating infection), the loss of infectivity was found to be 50%.
